Series [1] in a line: Oral bioavailability in rat. Type of series: ADME, organism-based. Conditions: in vivo.
The subject of series [2] is Plasmodium vinckei. The experiment in a line: Antimalarial activity against Plasmodium vinckei infected in po dosed Swiss mouse. In kind it is functional.
For series [3], the system named is Plasmodium falciparum. The experiment in a line: Antiplasmodial activity against drug-sensitive Plasmodium falciparum 3D7. Type of series: functional, organism-based.
For series [4], the system named is Plasmodium berghei. In words: Antimalarial activity against Plasmodium berghei ANKA infected in mouse assessed as reduction in parasitemia at 40 mg/kg, ip relative to control. Type of series: functional. Conditions: route intraperitoneal.
For series [5], the system named is Plasmodium falciparum. In words: Antiplasmodial activity against erythrocytic stage of multidrug-resistant Plasmodium falciparum K1. In kind it is functional, organism-based.
For series [6], the system named is Plasmodium. In words: Antimalarial activity against Plasmodium infected in mouse. In kind it is functional.
The subject of series [7] is Plasmodium falciparum. The experiment in a line: Antiplasmodial activity against chloroquine-resistant Plasmodium falciparum K1. In kind it is functional, organism-based.
The test system of series [8] is Plasmodium falciparum. In words: Antiplasmodial activity against Plasmodium falciparum VS/1 expressing DHFR quadruple mutation by [3H]-hypoxanthine incorporation assay. In kind it is functional, organism-based.
Series [9] relates to Plasmodium falciparum. The experiment in a line: Antimalarial activity against Plasmodium falciparum VS/1 expressing DHFR quadruple mutation infected in po dosed SCID mouse assessed as reduction in parasitemia administered 3 days post infection measured on day 6. In kind it is functional. The following applies: VS/1, po.
Series [10] concerns Plasmodium falciparum. In words: Antiplasmodial activity against wild type Plasmodium falciparum TM4 by [3H]-hypoxanthine incorporation assay. The following applies: TM4, 3 h.
Series [11] in a line: Half life in po dosed Sprague-Dawley rat by LC/MS/MS analysis. Type of series: ADME, organism-based. Conditions: in vivo.
The nature of series [12]: Oral bioavailability in Sprague-Dawley rat. Type of series: ADME, organism-based. The following applies: in vivo.
Series [13] deals with Plasmodium falciparum. In words: Antiplasmodial activity against drug-sensitive Plasmodium falciparum 3D7 after 72 hrs by SYBR Green staining-based fluorescence assay. Conditions: 3D7, 72 h. Type of series: functional, organism-based.
In series [14] the test system is Plasmodium falciparum. In words: Antiplasmodial activity against multidrug-resistant Plasmodium falciparum Dd2 after 72 hrs by SYBR Green staining-based fluorescence assay. In kind it is functional, organism-based. Conditions: Dd2, 72 h.
For series [15], the system named is Plasmodium falciparum. The experiment in a line: Antimalarial activity against Plasmodium falciparum infected in mouse. In kind it is functional.
Series [16] relates to Plasmodium falciparum. In words: Antimalarial activity against Plasmodium falciparum infected in SCID mouse. In kind it is functional.
In series [17] the test system is Plasmodium berghei. In words: Antimalarial activity against erythrocytic stage of Plasmodium berghei infected in po dosed mouse administered for 3 days. In kind it is functional. The following applies: 72 h.
Series [18] has as its system Plasmodium falciparum. The experiment in a line: Antiplasmodial activity against drug-sensitive Plasmodium falciparum NF54. Type of series: functional, organism-based.
For series [19], the system named is Plasmodium falciparum. In words: Antiplasmodial activity against blood stage of Plasmodium falciparum. In kind it is functional, organism-based.
For another series, the system named is Plasmodium yoelii. In words: Antiplasmodial activity against liver stage of Plasmodium yoelii. In kind it is functional, organism-based.
Series [20] is described as follows: Oral bioavailability in mouse. In kind it is ADME, organism-based. Conditions: in vivo.
In series [21] the test system is Plasmodium. The experiment in a line: Antiplasmodial activity against Plasmodium. In kind it is functional.
Series [22] deals with Plasmodium. In words: Antimalarial activity against Plasmodium infected in ip dosed mouse. In kind it is functional.
For series [23], the system named is Plasmodium vinckei. The experiment in a line: Antimalarial activity against Plasmodium vinckei infected in ip dosed Swiss mouse at 5 to 10% parasitemia. In kind it is functional.
In series [24] the test system is Plasmodium vinckei. The experiment in a line: Antimalarial activity against Plasmodium vinckei infected in ip dosed Swiss mouse at 0.5 to 1% parasitemia. Type of series: functional.
The nature of series [25]: Half life in human. In kind it is ADME, organism-based. Conditions: in vivo.
Series [26] has as its system Plasmodium falciparum. The experiment in a line: Antiplasmodial activity against erythrocytic stage of multidrug-resistant Plasmodium falciparum W2. In kind it is functional, organism-based.
In series [27] the test system is Plasmodium berghei. The experiment in a line: Antimalarial activity against Plasmodium berghei str. ANKA infected in po dosed mouse assessed as reduction in parasitemia. In kind it is functional.

pEC50, pIC50: −log10 of the molar value. Some results are limits rather than exact numbers.

The bioavailability is dose-corrected exposure relative to a reference, in per cent. Read a high bioavailability as much systemic uptake. For orientation: ED50 means the midpoint of the dose-response relation. As for `C/C(=C1\CCOC(=O)S1)N(C=O)CCCCCCCCCCCCN(C=O)/C(C)=C1/CCOC(=O)S1`, in series [1], the bioavailability came to 15%. Besides, the ED50 in the series with Plasmodium vinckei [2] came out at 5 mg/kg/day.
The term pEC50 denotes the EC50 on a negative log10 scale, so that one unit is a factor of ten. Read a low pEC50 as a large EC50. In turn, `CCN(CC)Cc1cc(Nc2ccnc3cc(Cl)ccc23)ccc1O` gave a pEC50 in the series with Plasmodium falciparum [3] of 7.96.
In the case of `COc1cc2c(NC3CCN(C)CC3)nc(N3CCCN(C)CC3)nc2cc1OCc1ccccc1`, the pEC50 in the series with Plasmodium falciparum [3] was 7.00. Further, the “fold change (FC)” value with Plasmodium berghei [4] is on record as 18.
`CSc1ccc2nc(N(Cc3cccnc3)C(=O)c3ccc(C(C)(C)C)cc3)sc2c1` showed a pEC50 in the series with Plasmodium falciparum [5] of 6.49.
In general, pIC50 refers to the IC50 on a negative log10 scale, so that one unit is a factor of ten. High values mean a small IC50, low ones a large IC50. In turn, `CN1CCN(C2CCN(C(=O)CC3CCC4(CC3)OOC3(OO4)C4CC5CC(C4)CC3C5)CC2)CC1` (configuration not stated) returned an ED50 in the series on Plasmodium [6] of 1.8 mg/kg/day. Besides, the pIC50 in the series with Plasmodium falciparum [3] is 8.31; with Plasmodium falciparum [7], 8.72.
As usually defined, the half-life is how long it takes for the measured level to halve. Turning to `CCc1nc(N)nc(N)c1OCCCOc1ccccc1CCC(=O)O.Cl`, the pIC50 with Plasmodium falciparum [8] was 7.25; with Plasmodium falciparum [10], 8.34. Further, the ED50 in the series with Plasmodium falciparum [9] is 0.3 mg/kg/day. This compound gave a half-life in [11] of 7.3 h. The same compound yielded a bioavailability in series [12] of 46%.
With `CCOc1ccc(F)cc1C1(O)C(N)=Nc2ccc(Cl)cc21` (configuration not stated), the figures for the pEC50 in the series on Plasmodium falciparum [13] and in the series with Plasmodium falciparum [14] were 7.55 and 7.19, respectively. This compound showed an ED99 with Plasmodium falciparum [15] of 100 mg/kg/day.
Consider `CC(=O)N1CCN(c2ccc(CN(C(=O)/C=C/c3ccc(C(F)(F)F)cc3)[C@@H](Cc3ccccc3)C(=O)N3CCN(Cc4ccc(N(C)CCO)cc4)CC3)cc2)CC1`, for which the ED90 in the series with Plasmodium falciparum [16] is 8.4 mg/kg/day; in the series on Plasmodium berghei [17], 54 mg/kg/day. Moreover, the pEC50 with Plasmodium falciparum [18] was 9.00.
In the case of `C[C@H](NC(=O)[C@H](Cc1ccccc1)C[C@@H](O)[C@H](Cc1ccccc1)NC(=O)OC(C)(C)C)C(=O)N[C@@H]1C(=O)N(C)c2ccccc2-c2ccccc21`, the pEC50 in the series on Plasmodium falciparum [19] was 7.77; with Plasmodium yoelii, 8.11.
Consider `CN1CCN(C2CCN(C(=O)CC3CCC4(CC3)OOC3(OO4)C4CC5CC(C4)CC3C5)CC2)CC1.Cc1ccc(S(=O)(=O)O)cc1` (configuration not stated), for which the figures for the bioavailability in [1] and in [20] were 38% and 42%, respectively.
In the series on Plasmodium [21], `Cc1c(CCO)sc[n+]1CCCCCCCCCCCC[n+]1csc(CCO)c1C.[I-].[I-]` showed a pEC50 of 8.70. Besides, the ED50 is 0.2 mg/kg/day in the series with Plasmodium [22], at most 0.5 mg/kg/day in the series with Plasmodium vinckei [23], 13 mg/kg/day in the series on Plasmodium vinckei [2] and 1 mg/kg/day in the series with Plasmodium vinckei [24]. In [20], this compound showed a bioavailability of 2%.
With `CO[C@H]1O[C@@H]2O[C@@]3(C)CC[C@H]4[C@H](C)CC[C@@H]([C@H]1C)[C@@]24OO3`, the half-life in [25] is 1 h.
In the series on Plasmodium falciparum [3], `COc1cc2nc(N3CCCN(C)CC3)nc(NC3CCN(Cc4ccccc4)CC3)c2cc1OC` showed a pEC50 of 7.12. For the same compound, in the series with Plasmodium berghei [4], the “fold change (FC)” value came out at 2.
`CC(C)(C)c1cc(C(=O)N2CCN(c3ncccc3C(F)(F)F)CC2)n(Cc2ccccc2)n1`: the pEC50 with Plasmodium falciparum [3] was 7.00.
In the series with Plasmodium falciparum [26], `O[C@@H](c1cc(C(F)(F)F)nc2c(C(F)(F)F)cccc12)[C@H]1CCCCN1` (relative stereo) [(S,R)-MEFLOQUINE] had a pEC50 of 8.15. For the same compound, the half-life in series [25] stood at 336 h. Also, the ED50 in the series with Plasmodium berghei [27] amounted to 3.3 mg/kg.

Source of the values: ChEMBL document CHEMBL2385043, “Recent advances in malaria drug discovery” (Bioorg Med Chem Lett, 2013).
